From US12202823B2 (QUIMATRYX, S.L., priority 2019, dated 2025)

Biological target: hHDAC6 (Homo sapiens (Human), UniProt Q9UBN7)
Assay: HDAC6 inhibition protocol
Conditions: read-out: IC50 (nM) of enzyme activity HDAC6; hHDAC6 1.20 nM, Acetylated Peptide A 2 μM, 1 hour at RT
Protocol: After enzymatic reactions, reaction was stopped by adding 5 μl of 10 μM solution of a known inhibitor. The fluorescent signal of substrate and product was measured by means of microfluidics mobility assay in a EZ Reader II equipment. The percentage of conversion of substrate into product was calculated by the equipment software based on the area of the peaks.
The percentage of conversion data were analyzed using the computer software, Graphpad Prism. In the absence of the compound, the conversion (Ct) in each data set was defined as 100% activity. In the absence of HDAC, the conversion (Cb) in each data set was defined as 0% activity. The percent activity in the presence of each compound was calculated according to the following equation: % inhibition=(Ct−C)/(Ct−Cb), where C=the percentage of conversion in the presence of the compound.
The values of % inhibition versus a series of compound concentrations were then plotted using non-linear regression analysis of Sigmoidal dose-response curve generated with the equation Y=B+(T−B)/1+10((Log EC50−X)×Hill Slope), where Y=percent inhibition, B=minimum percent inhibition, T=maximum percent inhibition, X=logarithm of compound and Hill Slope=slope factor or Hill coefficient. The IC50 value was determined by the concentration causing a half-maximal percent activity.
The buffer assay used in the inhibition hHDAC6 assay is: Hepes 50 mM, KCl 100 mM, Tween 20 0.001%, BSA 0.01%; pH=7.4.

Sequence of hHDAC6 (Q9UBN7 whole entry): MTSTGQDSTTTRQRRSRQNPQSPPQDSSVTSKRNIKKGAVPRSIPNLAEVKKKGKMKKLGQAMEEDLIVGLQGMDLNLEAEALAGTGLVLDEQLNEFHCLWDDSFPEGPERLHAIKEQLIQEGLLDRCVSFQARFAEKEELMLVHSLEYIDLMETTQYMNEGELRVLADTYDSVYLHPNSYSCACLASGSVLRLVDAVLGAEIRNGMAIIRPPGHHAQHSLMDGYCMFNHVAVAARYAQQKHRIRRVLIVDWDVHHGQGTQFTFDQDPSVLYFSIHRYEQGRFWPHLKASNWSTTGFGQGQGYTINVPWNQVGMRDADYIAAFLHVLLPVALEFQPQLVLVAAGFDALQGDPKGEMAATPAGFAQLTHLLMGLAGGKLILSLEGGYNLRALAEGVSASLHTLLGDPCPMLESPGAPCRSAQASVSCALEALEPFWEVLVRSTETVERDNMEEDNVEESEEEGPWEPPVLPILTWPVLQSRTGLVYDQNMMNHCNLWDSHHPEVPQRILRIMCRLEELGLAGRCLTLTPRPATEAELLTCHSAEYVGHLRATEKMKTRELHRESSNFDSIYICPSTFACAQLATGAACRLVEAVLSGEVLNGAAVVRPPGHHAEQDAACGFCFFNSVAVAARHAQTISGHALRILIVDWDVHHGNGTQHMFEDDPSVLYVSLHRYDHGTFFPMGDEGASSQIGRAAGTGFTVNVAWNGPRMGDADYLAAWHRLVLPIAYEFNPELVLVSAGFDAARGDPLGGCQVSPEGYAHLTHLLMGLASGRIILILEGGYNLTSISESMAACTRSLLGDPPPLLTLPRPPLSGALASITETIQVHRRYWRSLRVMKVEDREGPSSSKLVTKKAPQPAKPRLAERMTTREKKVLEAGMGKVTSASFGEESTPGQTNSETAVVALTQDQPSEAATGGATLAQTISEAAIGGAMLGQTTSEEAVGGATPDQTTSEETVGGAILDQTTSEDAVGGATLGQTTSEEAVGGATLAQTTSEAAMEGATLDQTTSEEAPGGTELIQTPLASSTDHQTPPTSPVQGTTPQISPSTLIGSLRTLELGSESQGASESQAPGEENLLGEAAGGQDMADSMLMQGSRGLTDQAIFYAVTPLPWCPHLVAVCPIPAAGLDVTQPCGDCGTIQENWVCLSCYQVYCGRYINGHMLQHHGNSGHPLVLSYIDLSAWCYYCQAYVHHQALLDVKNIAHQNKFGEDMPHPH

Row | SMILES | IC50 [nM]
1 | Fc1ccccc1-c1nnn(Cc2ccc(-c3nnc(C(F)F)o3)cn2)c1Cl [Example 67, 2-(6-((5-chloro-4-(2-fluorophenyl)-1H-1,2,3-triazol-1-yl)methyl)pyridin-3-yl)-5-(difluoromethyl)-1,3,4-oxadiazole] | 67.4
2 | O=c1n(-c2ccccc2)cnn1Cc1ccc(-c2nnc(C(F)F)o2)cc1 [Example 18, 1-(4-(5-(difluoromethyl)-1,3,4-oxadiazol-2-yl)benzyl)-4-phenyl-1H-1,2,4-triazol-5(4H)-one] | 1160
3 | FC(F)c1nnc(-c2ccc(Cn3cc(-c4cccs4)nn3)cc2)o1 [Example 36, 2-(difluoromethyl)-5-(4-((4-(thiophen-2-yl)-1H-1,2,3-triazol-1-yl)methyl)phenyl)-1,3,4-oxadiazole] | 105
4 | O=C(c1nc2cc(Cl)c(Cl)cc2n1Cc1ccc(-c2nnc(C(F)F)o2)cc1)C(F)F [Example 9, 1-(5,6-dichloro-1-(4-(5-(difluoromethyl)-1,3,4-oxadiazol-2-yl)benzyl)-1H-benzo[d]imidazol-2-yl)-2,2-difluoroethanone] | 236
5 | FC(F)c1nnc(-c2ccc(Cn3ccc4cccnc43)cc2)o1 [Example 4, 2-(4-((1H-pyrrolo[2,3-b]pyridin-1-yl)methyl)phenyl)-5-(difluoromethyl)-1,3,4-oxadiazole] | 1760
6 | FC(F)c1nnc(-c2ccc(Cn3cc(-c4ccc(Cl)cc4)nn3)nc2)o1 [Example 43, 2-(6-((4-(4-chlorophenyl)-1H-1,2,3-triazol-1-yl)methyl)pyridin-3-yl)-5-(difluoromethyl)-1,3,4-oxadiazole] | 43.1
7 | FC(F)c1nnc(-c2ccc(Cn3nnc4cccnc43)nc2)o1 [Example 23, 2-(6-((3H-[1,2,3]triazolo[4,5-b]pyridin-3-yl)methyl)pyridin-3-yl)-5-(difluoromethyl)-1,3,4-oxadiazole] | 190
8 | FC(F)c1nnc(-c2ccc(Cn3cc(-c4ccsc4)nn3)cc2)o1 [Example 35, 2-(difluoromethyl)-5-(4-((4-(thiophen-3-yl)-1H-1,2,3-triazol-1-yl)methyl)phenyl)-1,3,4-oxadiazole] | 131
9 | FC(F)c1nnc(-c2ccc(Cn3cnc4cc(Cl)c(Cl)cc43)cc2)o1 [Example 10, 2-(4-((5,6-dichloro-1H-benzo[d]imidazol-1-yl)methyl)phenyl)-5-(difluoromethyl)-1,3,4-oxadiazole] | 60.2
10 | O=C1N(Cc2ccc(-c3nnc(C(F)F)o3)cc2)c2ccccc2C12CCOCC2 [Example 19] | 229
11 | FC(F)c1nnc(-c2ccc(Cn3nnc4ccccc43)nc2)o1 [Example 21, 2-(6-((1H-benzo[d][1,2,3]triazol-1-yl)methyl)pyridin-3-yl)-5-(difluoromethyl)-1,3,4-oxadiazole] | 103
12 | FC(F)c1nnc(-c2ccc(C(Cl)n3cc(-c4ccccc4)nn3)nc2)o1 (stereo not shown) [Example 55, 2-(6-(chloro(4-phenyl-1H-1,2,3-triazol-1-yl)methyl)pyridin-3-yl)-5-(difluoromethyl)-1,3,4-oxadiazole] | 58.2
13 | FC(F)c1nnc(-c2ccc(Cn3ccc4cnccc43)cc2)o1 [Example 3, 2-(4-((1H-pyrrolo[3,2-c]pyridin-1-yl)methyl)phenyl)-5-(difluoromethyl)-1,3,4-oxadiazole] | 4910
14 | FC(F)c1nnc(-c2ccc(Cn3ccc4ncccc43)cc2)o1 [Example 2, 2-(4-((1H-pyrrolo[3,2-b]pyridin-1-yl)methyl)phenyl)-5-(difluoromethyl)-1,3,4-oxadiazole] | 1040
15 | FC(F)c1nnc(-c2ccc(Cn3cnc(-c4ccccc4)c3)nc2)o1 [Example 26, 2-(difluoromethyl)-5-(6-((4-phenyl-1H-imidazol-1-yl)methyl)pyridin-3-yl)-1,3,4-oxadiazole] | 48.3
16 | CC(c1ccc(-c2nnc(C(F)F)o2)cc1)n1cnc2ccccc21 (stereo not shown) [Example 20, 2-(4-(1-(1H-benzo[d]imidazol-1-yl)ethyl)phenyl)-5-(difluoromethyl)-1,3,4-oxadiazole] | 589
17 | FC(F)c1nnc(-c2ccc(Cn3cc(-c4ccc(Cl)c(Cl)c4)nn3)nc2)o1 [Example 46, 2-(6-((4-(3,4-dichlorophenyl)-1H-1,2,3-triazol-1-yl)methyl)pyridin-3-yl)-5-(difluoromethyl)-1,3,4-oxadiazole] | 37.9
18 | FC(F)c1nnc(-c2ccc(Cn3c(C(F)(F)F)nc4cc(Cl)c(Cl)cc43)nc2)o1 [Example 58, 2-(6-((5,6-dichloro-2-(trifluoromethyl)-1H-benzo[d]imidazol-1-yl)methyl)pyridin-3-yl)-5-(difluoromethyl)-1,3,4-oxadiazole] | 121
19 | FC(F)c1nnc(-c2ccc(Cn3cc(-c4ccccc4Cl)nn3)nc2)o1 [Example 44, 2-(6-((4-(2-chlorophenyl)-1H-1,2,3-triazol-1-yl)methyl)pyridin-3-yl)-5-(difluoromethyl)-1,3,4-oxadiazole] | 37.1
20 | COc1cccc(-c2cn(Cc3ccc(-c4nnc(C(F)F)o4)cn3)nn2)c1 [Example 50] | 43.5

Row | SMILES | IC50 [nM]
21 | FC(F)c1nnc(-c2ccc(Cn3cc(-c4ccc(C(F)(F)F)cc4)nn3)cc2)o1 [Example 30, 2-(difluoromethyl)-5-(4-((4-(4-(trifluoromethyl)phenyl)-1H-1,2,3-triazol-1-yl)methyl)phenyl)-1,3,4-oxadiazole] | 238
22 | FC(F)c1nnc(-c2ccc(Cn3nc4ccc(Br)cc4n3)nc2)o1 [Example 66, 2-(6-((5-bromo-2H-benzo[d][1,2,3]triazol-2-yl)methyl)pyridin-3-yl)-5-(difluoromethyl)-1,3,4-oxadiazole] | 33.3
23 | Cc1nc2cc(Cl)c(Cl)cc2n1Cc1ccc(-c2nnc(C(F)F)o2)cn1 [Example 60, 2-(6-((5,6-dichloro-2-methyl-1H-benzo[d]imidazol-1-yl)methyl)pyridin-3-yl)-5-(difluoromethyl)-1,3,4-oxadiazole] | 42.3
24 | COC(=O)c1cn(Cc2ccc(-c3nnc(C(F)F)o3)cc2)nn1 [Example 28, methyl 1-(4-(5-(difluoromethyl)-1,3,4-oxadiazol-2-yl)benzyl)-1H-1,2,3-triazole-4-carboxylate] | 2800
25 | Fc1cccc(F)c1-c1cn(Cc2ccc(-c3nnc(C(F)F)o3)cn2)nn1 [Example 49, 2-(difluoromethyl)-5-(6-((4-(2,6-difluorophenyl)-1H-1,2,3-triazol-1-yl)methyl)pyridin-3-yl)-1,3,4-oxadiazole] | 66.7
26 | Fc1cc(F)cc(-c2cn(Cc3ccc(-c4nnc(C(F)F)o4)cn3)nn2)c1 [Example 56, 2-(difluoromethyl)-5-(6-((4-(3,5-difluorophenyl)-1H-1,2,3-triazol-1-yl)methyl)pyridin-3-yl)-1,3,4-oxadiazole] | 66.5
27 | FC(F)c1nnc(-c2ccc(Cn3cc(C4CCCCC4)nn3)cc2)o1 [Example 32, 2-(4-((4-cyclohexyl-1H-1,2,3-triazol-1-yl)methyl)phenyl)-5-(difluoromethyl)-1,3,4-oxadiazole] | 475
28 | FC(F)c1nnc(-c2ccc(Cn3nnc4cc(Br)ccc43)nc2)o1 [Example 64, 2-(6-((5-bromo-1H-benzo[d][1,2,3]triazol-1-yl)methyl)pyridin-3-yl)-5-(difluoromethyl)-1,3,4-oxadiazole] | 48.7
29 | FC(F)c1nnc(-c2ccc(Cn3cc(-c4cccc(Cl)c4)nn3)nc2)o1 [Example 45, 2-(6-((4-(3-chlorophenyl)-1H-1,2,3-triazol-1-yl)methyl)pyridin-3-yl)-5-(difluoromethyl)-1,3,4-oxadiazole] | 33.5
30 | FC(F)c1nnc(-c2ccc(Cn3cnc4ccc(Br)cc43)nc2)o1 [Example 62, 2-(6-((6-bromo-1H-benzo[d]imidazol-1-yl)methyl)pyridin-3-yl)-5-(difluoromethyl)-1,3,4-oxadiazole] | 61.8
31 | Cc1nnn(Cc2ccc(-c3nnc(C(F)F)o3)cc2)c1-c1ccccc1 [Example 40, 2-(difluoromethyl)-5-(4-((4-methyl-5-phenyl-1H-1,2,3-triazol-1-yl)methyl)phenyl)-1,3,4-oxadiazole] | 686
32 | FC(F)c1nnc(-c2ccc(Cn3nnnc3-c3ccccc3)cc2)o1 [Example 17, 2-(difluoromethyl)-5-(4-((5-phenyl-1H-tetrazol-1-yl)methyl)phenyl)-1,3,4-oxadiazole] | 920
33 | FC(F)c1nnc(-c2ccc(Cn3nnc(-c4ccccc4)c3-c3ccccc3)cc2)o1 [Example 38, 2-(difluoromethyl)-5-(4-((4,5-diphenyl-1H-1,2,3-triazol-1-yl)methyl)phenyl)-1,3,4-oxadiazole] | 266
34 | FC(F)c1nnc(-c2ccc(Cn3nnc(-c4ccccc4)c3Cl)cc2)o1 [Example 51, 2-(4-((5-chloro-4-phenyl-1H-1,2,3-triazol-1-yl)methyl)phenyl)-5-(difluoromethyl)-1,3,4-oxadiazole] | 87.9
35 | FC(F)c1nnc(-c2ccc(Cn3ccc4ccccc43)cc2)o1 [Example 1, 2-(4-((1H-indol-1-yl)methyl)phenyl)-5-(difluoromethyl)-1,3,4-oxadiazole] | 3040
36 | CC(c1ccc(-c2nnc(C(F)F)o2)cc1)n1cc(-c2ccccc2)nn1 (stereo not shown) [Example 37, 2-(difluoromethyl)-5-(4-(1-(4-phenyl-1H-1,2,3-triazol-1-yl)ethyl)phenyl)-1,3,4-oxadiazole] | 149
37 | FC(F)c1nnc(-c2ccc(Cn3cnc4ccccc43)cc2)o1 [Example 8, 2-(4-((1H-benzo[d]imidazol-1-yl)methyl)phenyl)-5-(difluoromethyl)-1,3,4-oxadiazole] | 387
38 | FC(F)c1nnc(-c2ccc(Cn3nnc4ccc(Br)cc43)nc2)o1 [Example 65, 2-(6-((6-bromo-1H-benzo[d][1,2,3]triazol-1-yl)methyl)pyridin-3-yl)-5-(difluoromethyl)-1,3,4-oxadiazole] | 40.4
39 | FC(F)c1nnc(-c2ccc(Cn3ncc4ccccc43)cc2)o1 [Example 6, 2-(4-((1H-indazol-1-yl)methyl)phenyl)-5-(difluoromethyl)-1,3,4-oxadiazole] | 417
40 | FC(F)c1nnc(-c2ccc(Cn3cc(-c4ccccc4)nn3)nc2)o1 [Example 41, 2-(difluoromethyl)-5-(6-((4-phenyl-1H-1,2,3-triazol-1-yl)methyl)pyridin-3-yl)-1,3,4-oxadiazole] | 40.9
